The term inhibition denotes how much of the control response was suppressed. Higher therefore signals a response far below the control.

Like-named read-outs stand apart in the source and are kept apart here. Ends that are not written are not given here.

What all share (assay type): biochemical
In test [1] the target is T1, Cathepsin G (Homo sapiens, UniProt P08311).
T1 construct: purchased Elastin Products Company (EPC) SG-45
T1 sequence (P08311 21-255): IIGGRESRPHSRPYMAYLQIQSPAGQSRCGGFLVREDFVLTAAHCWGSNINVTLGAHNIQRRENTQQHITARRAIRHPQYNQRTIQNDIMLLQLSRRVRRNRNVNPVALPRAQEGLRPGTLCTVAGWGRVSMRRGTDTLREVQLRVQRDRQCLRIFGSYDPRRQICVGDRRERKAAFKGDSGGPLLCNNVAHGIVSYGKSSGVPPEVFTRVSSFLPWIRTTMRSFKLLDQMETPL
Nature of the test: Cathepsin G assay (Suc-Ala-Ala-Pro-Phe-pNA, 410 nm). The note with it: for inhibition at 100 µM / Cathepsin G % inhibition: 100 μM peptide (Tables VI, VIII); for inhibition at 200 µM / Cathepsin G Inhibition: 200 μM peptide (head of Table IX). The method, then:
Reference: Elastin Products Company (EPC) technical data sheet, cathepsin G, No. SG-45.
Method: Spectrophotometric rate determination
A) Buffer; 0.1M Tris, pH 7.5 at 25° C.
B) Substrate; 60 mM Suc-Ala-Ala-Pro-Phe-pNA obtained from Sigma Chemical Company. Solution prepared by dissolving 50 mg substrate in 1.3 ml of 1-methyl-2-pyrrolidinone. Stored at 5° C.
C) Peptide Inhibitors; 200 μM HCl salt. Depending on peptide solubility, dissolved in buffer or DMSO and then buffer added for a final concentration of 10% DMSO.
D) Enzyme; Cathepsin G, EPC SG-45, lot 85117 used for all assays, 0.0077 mg protein per mg solid determined by supplier by Bradford method. Enzyme was dissolved in buffer at a concentration of approx. 5 mg/ml solid. Solution stored on ice, used within 2 hours.
Pipetted the following into semi-micro quartz cuvettes: 0.3 ml buffer, 0.15 ml peptide solution and 0.5 ml of substrate solution. Equilibrate for 5 min. at 25° C., then add 0.05 ml of enzyme solution and monitor the release of pNA spectrophotometrically at 410 nm for at least 3 minutes. The controls contain either 0.45 ml of buffer or 20% DMSO in buffer (for a final concentration of 10% DMSO).
The rate (O.D./min) is obtained as an average over 3 minutes. [formula]

Test [2] has as its target T2, C1s (Homo sapiens, UniProt P09871).
T2 construct: prepared from pooled human plasma; from tissue; host or cells: pooled human plasma
T2 sequence (P09871 16-688): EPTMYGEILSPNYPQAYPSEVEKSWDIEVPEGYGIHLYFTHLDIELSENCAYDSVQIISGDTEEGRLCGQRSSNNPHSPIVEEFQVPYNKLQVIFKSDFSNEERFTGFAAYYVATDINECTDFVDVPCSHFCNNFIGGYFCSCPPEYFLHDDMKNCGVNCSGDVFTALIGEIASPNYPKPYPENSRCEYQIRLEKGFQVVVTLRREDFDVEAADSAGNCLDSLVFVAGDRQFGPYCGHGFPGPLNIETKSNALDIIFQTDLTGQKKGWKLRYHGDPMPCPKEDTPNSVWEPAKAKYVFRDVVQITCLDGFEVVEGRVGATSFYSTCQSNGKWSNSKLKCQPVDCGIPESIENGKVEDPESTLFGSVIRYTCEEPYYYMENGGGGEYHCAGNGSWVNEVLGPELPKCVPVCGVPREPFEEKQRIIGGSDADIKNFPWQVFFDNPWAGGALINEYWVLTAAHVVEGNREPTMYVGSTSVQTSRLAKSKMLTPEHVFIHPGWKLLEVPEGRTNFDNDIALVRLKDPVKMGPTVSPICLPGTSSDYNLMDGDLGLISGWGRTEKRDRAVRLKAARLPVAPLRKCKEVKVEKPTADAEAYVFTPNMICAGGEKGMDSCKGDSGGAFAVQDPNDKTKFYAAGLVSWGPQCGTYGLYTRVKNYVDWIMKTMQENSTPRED
The experiment in a line: C1s assay by inhibition of fluid phase C4 activation. How it is done: Highly purified C3, C4, Factor D, Factor B, and C1s were prepared from pooled human plasma. Factors B and C4 were radiolabeled by periodate oxidation of sialic acid residues, followed by reduction with tritiated sodium borohydride. In a representative experiment, a solution of 1.2 mg of factor B in 1.8 ml of PBS was treated with 70 μl of 0.1M NaIO4. After 10 min incubation on ice, excess reagent was removed by filtration over "SEPHADEX®" which is a matrix for gel chromatography (1.0 cm×20 cm). To the protein pool was added 60 μl of NaB[^3 H]4 solution and incubated for 30 min on ice. Labeled protein was separated from excess reagent by desalting or dialysis. Human C4 was radiolabeled in the same manner. Radiolabeled proteins were stored at -70° C. in PBS. The specific radioactivity of ^3 H factor B was about 10,000 CPM/μg and that of ^3 H-C4 was 5,000 CPM/μg.
The cleavage of C4 was studied by incubating 10 μg of tritiated C4 with 3-5 ng of C1s at 37° C. for 30 min in 100 μl of PBS (pH 7.10) containing different concentrations of inhibitor. The reaction was stopped by the addition of 2-mercaptoethanol. The extent of cleavage was analyzed by SDS-polyacrylamide gel electrophoresis. The stained bands corresponding to C4α and C4α' were cut out and sliced. The radioactivity of the fragments was measured by liquid scintillation counting. The percent cleavage of the reaction was calculated as follows: [formula]
Electrophoresis was carried out under reducing conditions in the Laemmli system using slab gel of 8% polyacrylamide. The gels were stained and destained (Fairbanks et al. Biochemistry (1971) 10:2606).
The percent inhibition of the reaction was calculated according to the following relationship: [formula]
A: % cleavage without inhibitor
B: % cleavage with inhibitor
The concentration inducing 50% inhibition was obtained by plotting the percent inhibition on a probability graph (National Blank Book Co., No. 12-083) on the ordinate and the log of the inhibitor concentration on the abscissa. From this graph, a 50% inhibition concentration IC50 was obtained and this value was employed to express the activity.

The target in test [3] is Factor Xa (Homo sapiens, UniProt P00742). Nature of the test: Coagulation inhibition assay, Factor Xa (clotting of Factor X deficient plasma). The note with it: 40 μM peptide. How it is done: Inhibitory activity of subject peptides toward thrombin and Factor Xa were done in the following manner.
Sequence of Factor Xa (P00742 235-488 limits assumed): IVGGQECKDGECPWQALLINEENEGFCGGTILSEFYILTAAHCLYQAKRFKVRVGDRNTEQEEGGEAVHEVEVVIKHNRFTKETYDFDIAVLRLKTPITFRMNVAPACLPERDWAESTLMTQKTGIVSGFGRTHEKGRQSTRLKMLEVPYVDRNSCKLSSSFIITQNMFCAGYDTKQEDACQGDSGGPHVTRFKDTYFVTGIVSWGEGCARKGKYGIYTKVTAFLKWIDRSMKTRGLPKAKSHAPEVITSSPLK
Sequence of Factor Xa (P00742 41-179 partner limits assumed): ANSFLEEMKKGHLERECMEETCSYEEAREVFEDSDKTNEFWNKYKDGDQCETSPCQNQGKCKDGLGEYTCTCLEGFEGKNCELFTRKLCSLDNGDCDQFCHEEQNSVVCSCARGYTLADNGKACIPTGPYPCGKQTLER
Mix 50 μL Factor Xa (0.1 μg/ml) in TBSA with 100 μL Peptide in TBSA and 50 μL CaCl2 25 mM and incubate for 1 minute at 37° C. Add 50 μL Factor X deficient plasma/RBC (10/1) and measure clotting end point (in seconds) in a Fibrometer (BBL)
TBSA=Tris-Saline with Bovine Serum Albumin: 0.1M NaCl,0.05 M Tris-HCl, 1 mg/ml BSA, 0.1% NaN3
Factor X deficient plasma: George King Biomedical (GK 1004) RBC=Rabbit Brain Cephalin: Sigma Chemical Co. St. Louis, Mo.

The mark [4] stands for this setting: Tables VI and VIII, % 50, read-out: C1s, μM concentration listed for 50 % inhibition.

For the compound `CC[C@H](C)[C@H](NC(=O)[C@H](CC(C)C)NC(=O)[C@H](Cc1ccccc1)NC(=O)[C@@H](NC(=O)[C@H](Cc1ccccc1)NC(=O)[C@@H]1CCCN1C(=O)[C@H](CCCCN)NC(=O)[C@H](CC(N)=O)NC(=O)[C@H](Cc1ccccc1)NC(=O)[C@H](CCCCN)NC(=O)[C@@H](NC(=O)[C@H](CCC(=O)O)NC(=O)[C@@H]1CCCN1C(=O)[C@@H]1CCCN1)C(C)C)C(C)C)C(=O)O` [Peptide 1], at 100 µM the inhibition in test [1] was 0%. The inhibition at 200 µM in test [1] and in test [2] (200 μM peptide) was 0% each time. In test [3], this compound showed an inhibition at 40 µM of 31%.
Take “AGRSLNPNRVTFKANRPFLVFIREVPLNTIIFLGRVANP [Peptide 27]”: the inhibition at 200 µM in test [1] was 52%. Further, the IC50 in test [2] (Table X, μM concentration at which protease was inhibited 50%, read-out: IC50 C1S) was determined as 12 µM.
For the compound IVRFNRPFLLII [Peptide 3], in test [1], 100 µM produced 32% inhibition and 200 µM produced 32% inhibition. Also, the IC50 in test [2] (setting [4]) was 55 µM. Also, in test [3], the inhibition at 40 µM amounted to 73%.
Consider “IVRFNRPFLLIIVPTDTQNIFFLSKVTNPSKPR [Peptide 22]”, for which, in test [1], the “Cathepsin G % inhibition” value amounted to 46% and the “Cathepsin G Inhibition” value is 46%. Further, the IC50 in test [2] (setting [4]) was 6 µM. For the same compound, the “Factor Xa % inhibition” value in test [3] is listed as 97%.
In test [1], PNRVTFKANRPFLVFI [Peptide 2] displayed an inhibition at 100 µM of 13% and an inhibition at 200 µM of 13%. The IC50 in test [2] (setting [4]) was determined as 34 µM. Further, the inhibition at 40 µM in test [3] stood at 51%.
In test [1], “RVTFKANRPFLVFIREVPLNTIIFLGRVANP [Peptide 21]” yielded an inhibition at 100 µM of 38% and an inhibition at 200 µM of 38%. Moreover, in test [2] (setting [4]), the IC50 was determined as 6 µM. In test [3], the inhibition at 40 µM was 99%.
Take “VKFNKPFVFLLIEQNTKSPLFLGKVVNPTQK [Peptide 20]”: in test [1], the “Cathepsin G % inhibition” value amounted to 0% and the “Cathepsin G Inhibition” value came to 0%. Also, the IC50 in test [2] (setting [4]) amounted to 12 µM. Also, in test [3], the “Factor Xa % inhibition” value is 87%.

The record behind these values is US5157019A, “Serine protease inhibitors” (Monsanto Company, priority 1991, dated 1992).
